Reference: PubChem BioAssay AID1963869 (Molecular Pharmacology Branch, DTP, NCI, 2024)

Test system: KRAS patient-derived spheroids with HUVEC/MSC, viability
Assay: Anticancer human tumor 323965-272-R-J2-PDC patient-derived pancreatic carcinoma cell line growth inhibition [KRAS2]
Conditions: for IC50: curve of first compound; for viability, T/C: stronger effect = lower value; active = viability on the fitted dose curve at most 10% of control; inactive = the rest
From the text: Multicellular complex tumor spheroid response to RAS pathway inhibitors in combination with a targeted agents in patient-derived cell lines with oncogenic KRAS variants from multiple cancer types
A high-throughput screen of multi-cell type tumor spheroids was designed to identify active combinations of targeted small molecules and KRAS pathway inhibitors. Complex spheroids include a stromal component modeled by human endothelial cells (HUVEC) and fibroblasts modeled by human mesenchymal stem cells (MSCs). The concentration ranges selected for each drug and investigational agent were based upon clinically achievable concentrations if the clinical Cmax of the agent was known.
Compounds. The drugs and investigational agents: BI-3406 (NSC825286), BAY-293 (NSC824723), batoprotafib (TNO155; NSC825523), sotorasib (AMG 510; NSC818433), MRTX1257 (NSC819558), elimusertib (BAY 1895344; NSC800525), molibresib (GSK525762; NSC774829), temuterkib (LY3214996; NSC803410), venetoclax (NSC766270), alisertib (NSC759677), olaparib (NSC753686), talazoparib (NSC767125), erdafitinib (NSC781556), ipatasertib (NSC767898), cabozantinib (NSC761068), nintedanib (NSC756659), abemaciclib (NSC768073), docetaxel (NSC628503), trametinib (NSC758246), and sapanisertib (NSC764658) were obtained from the National Cancer Institute (NCI) Developmental Therapeutics Program Chemical Repository. The FDA-approved anticancer drug set is available from the Developmental Therapeutics Program. […] The stock solutions were prepared in dimethyl sulfoxide (DMSO, Sigma-Aldrich, St. Louis, MO, cat. D2650) at 800-fold the tested concentration and stored at -70 degrees C prior to their use. All drugs and investigational agents were tested over a range starting from a high concentration at or near the clinical Cmax and decreasing in half-log increments. If the clinical Cmax for an agent had not been determined, the highest concentration tested was 10 microM.
Cell Culture. All cells were maintained in an incubator at 37 degrees C and 5% CO2 with 95% humidity. The PDC lines were cultured according to standard operating procedures established by the NCI PDMR (https://pdmr.cancer.gov/sops/default.htm). Briefly, all PDCs were thawed and cultured in Matrigel-coated flasks prepared with a working solution of 1X Ham's F-12 nutrient mix, without supplementation (Invitrogen, Waltham, MA, cat. 11765054), 100 U/mL penicillin-streptomycin (Invitrogen, cat. 15140122), and 2.5% Matrigel (Corning Inc., Corning, NY, cat. 354248) for the first three passages. All PDCs were cultured in complete DMEM/F-12 media containing advanced DMEM/F-12 (Invitrogen, cat. 12634028), 4.9% defined fetal bovine serum, heat inactivated (HyClone Laboratories Inc., Logan, UT, cat. SH30070.03HI), 389 ng/mL hydrocortisone (Sigma-Aldrich, cat. H4001), 9.7 ng/mL human EGF recombinant protein (Invitrogen, cat. PHG0313), 23.4 microg/mL adenine (Sigma-Aldrich, cat. A2786), 97.3 U/mL penicillin-streptomycin (Invitrogen, cat. 15140122), 1.9 mM L-glutamine (Invitrogen, cat. 25030081), and 9.7 microM Y-27632 dihydrochloride (Tocris Bioscience, Bristol, United Kingdom, cat. 1254). The PDCs were cultured in complete DMEM/F12 media without 9.7 microM Y-27632 dihydrochloride for at least two passages prior to the screen. The established cell line HOP-62 was cultured in RPMI 1640 medium, HEPES (Invitrogen, cat. 22400105) with 10% defined fetal bovine serum (HyClone Laboratories Inc., cat. SH30070.03) and 2 mM L-glutamine (Invitrogen, cat. 25030081). The pooled donor HUVEC were cultured in endothelial cell growth medium 2 (PromoCell, Heidelberg, Germany, cat. C-22011) and the hMSC were cultured in mesenchymal stem cell growth medium 2 (PromoCell, cat. C-28009). For all experiments, HUVEC and hMSC were used at passages </=5, while the malignant cell lines were used at passages </=15. […]

[1] = second compound 0.1 µM, first compound 0.01 µM
[2] = second compound 0.1 µM, first compound 0.0316 µM
[3] = second compound 0.1 µM, first compound 0.1 µM
[4] = second compound 0.1 µM, first compound 0.316 µM
[5] = second compound 0.1 µM, first compound 1 µM
[6] = second compound 0.1 µM, first compound 3.16 µM
[7] = second compound 0.316 µM, first compound 0.01 µM
[8] = second compound 0.316 µM, first compound 0.0316 µM
[9] = second compound 0.316 µM, first compound 0.1 µM
[10] = second compound 0.316 µM, first compound 0.316 µM
[11] = second compound 0.316 µM, first compound 1 µM
[12] = second compound 0.316 µM, first compound 3.16 µM
[13] = second compound 1 µM, first compound 0.01 µM
[14] = second compound 1 µM, first compound 0.0316 µM
[15] = second compound 1 µM, first compound 0.1 µM
[16] = second compound 1 µM, first compound 0.316 µM
[17] = second compound 1 µM, first compound 1 µM
[18] = second compound 1 µM, first compound 3.16 µM
[19] = second compound 3.16 µM, first compound 0.01 µM
[20] = second compound 3.16 µM, first compound 0.0316 µM
[21] = second compound 3.16 µM, first compound 0.1 µM
[22] = second compound 3.16 µM, first compound 0.316 µM
[23] = second compound 3.16 µM, first compound 1 µM
[24] = second compound 3.16 µM, first compound 3.16 µM
[25] = second compound 10 µM, first compound 0.0316 µM
[26] = second compound 10 µM, first compound 0.1 µM
[27] = second compound 10 µM, first compound 0.316 µM
[28] = second compound 10 µM, first compound 1 µM
[29] = second compound 10 µM, first compound 3.16 µM
[30] = second compound 0.1 µM, first compound 10 µM
[31] = second compound 0.316 µM, first compound 10 µM
[32] = second compound 1 µM, first compound 10 µM
[33] = second compound 3.16 µM, first compound 10 µM
[34] = second compound 10 µM, first compound 10 µM
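Note: spheroids exposed to agents for 7 days.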

CC1COCCN1c1cc(-c2ccnn2C)c2ccnc(-c3ccn[nH]3)c2n1 (stereo not given) + C=CC(=O)N1CCN(c2nc(=O)n(-c3c(C)ccnc3C(C)C)c3nc(-c4c(O)cccc4F)c(F)cc23)C(C)C1
< 10 nM: IC50 (second compound 0.316 µM) | IC50 (second compound 3.16 µM) | IC50 (second compound 10 µM)
11.9 nM: IC50 (second compound 1 µM)
11.6 nM: IC50 (second compound 0.1 µM)
inactive: viability, T/C [1] 53.6% | viability, T/C [2] 28% | viability, T/C [3] 18.7% | viability, T/C [4] 13.7% | viability, T/C [5] 13.8% | viability, T/C [6] 11.8% | viability, T/C [7] 44.2% | viability, T/C [8] 28.8% | viability, T/C [9] 18% | viability, T/C [10] 14.4% | viability, T/C [11] 16.1% | viability, T/C [12] 12.6% | viability, T/C [13] 54.1% | viability, T/C [14] 28% | viability, T/C [15] 18.9% | viability, T/C [16] 14.5% | viability, T/C [17] 14.1% | viability, T/C [18] 13.5% | viability, T/C [19] 40.6% | viability, T/C [20] 22.8% | viability, T/C [21] 15.5% | viability, T/C [22] 14.1% | viability, T/C [23] 13.3% | viability, T/C [24] 12.8% | viability, T/C (second compound 10 µM, first compound 0.01 µM) 20.9% | viability, T/C [25] 17.4% | viability, T/C [26] 16.8% | viability, T/C [27] 13.2% | viability, T/C [28] 13.4% | viability, T/C [29] 13.2%

CC1OCC2(CCN(c3cnc(Sc4ccnc(N)c4Cl)c(N)n3)CC2)C1N (stereo not given) + C=CC(=O)N1CCN(c2nc(=O)n(-c3c(C)ccnc3C(C)C)c3nc(-c4c(O)cccc4F)c(F)cc23)C(C)C1
< 31.6 nM: IC50 (second compound 0.1 µM) | IC50 (second compound 0.316 µM) | IC50 (second compound 1 µM) | IC50 (second compound 3.16 µM) | IC50 (second compound 10 µM)
inactive: viability, T/C [2] 41.2% | viability, T/C [3] 31.8% | viability, T/C [4] 25% | viability, T/C [5] 15.9% | viability, T/C [6] 11.1% | viability, T/C [30] 12% | viability, T/C [8] 39.1% | viability, T/C [9] 29.8% | viability, T/C [10] 22.5% | viability, T/C [11] 19% | viability, T/C [12] 10.7% | viability, T/C [31] 11.6% | viability, T/C [14] 46.9% | viability, T/C [15] 30.2% | viability, T/C [16] 24.1% | viability, T/C [17] 17.6% | viability, T/C [18] 15% | viability, T/C [32] 12.1% | viability, T/C [20] 45.2% | viability, T/C [21] 38.7% | viability, T/C [22] 26.9% | viability, T/C [23] 17.2% | viability, T/C [24] 15.8% | viability, T/C [33] 13% | viability, T/C [25] 33% | viability, T/C [26] 29.1% | viability, T/C [27] 19.4% | viability, T/C [28] 16.4% | viability, T/C [29] 11.5% | viability, T/C [34] 12.1%

Cn1nccc1Nc1nccc(-c2cc3c(s2)C(C)(C)N(CCN2CCOCC2)C3=O)n1 + C=CC(=O)N1CCN(c2nc(=O)n(-c3c(C)ccnc3C(C)C)c3nc(-c4c(O)cccc4F)c(F)cc23)C(C)C1
> 10000 nM: IC50 (second compound 3.16 µM)
67.8 nM: IC50 (second compound 0.1 µM)
< 31.6 nM: IC50 (second compound 0.316 µM) | IC50 (second compound 1 µM) | IC50 (second compound 10 µM)
inactive: viability, T/C [2] 52% | viability, T/C [3] 49.4% | viability, T/C [4] 46.8% | viability, T/C [5] 38.2% | viability, T/C [6] 32.6% | viability, T/C [30] 36% | viability, T/C [8] 48.3% | viability, T/C [9] 48% | viability, T/C [10] 41.8% | viability, T/C [11] 46.1% | viability, T/C [12] 40% | viability, T/C [31] 42.4% | viability, T/C [14] 53.8% | viability, T/C [15] 50% | viability, T/C [16] 45.1% | viability, T/C [17] 43.2% | viability, T/C [18] 43.9% | viability, T/C [32] 60.7% | viability, T/C [20] 51.5% | viability, T/C [21] 53% | viability, T/C [22] 48% | viability, T/C [23] 47.6% | viability, T/C [24] 51.3% | viability, T/C [33] 71.1% | viability, T/C [25] 45.7% | viability, T/C [26] 45.2% | viability, T/C [27] 42.6% | viability, T/C [28] 42.5% | viability, T/C [29] 43.3% | viability, T/C [34] 53.6%

CC(=O)OC12COC1CC(O)C1(C)C(=O)C(O)C3=C(C)C(OC(=O)C(O)C(NC(=O)OC(C)(C)C)c4ccccc4)CC(O)(C(OC(=O)c4ccccc4)C21)C3(C)C (stereo not given) + C=CC(=O)N1CCN(c2nc(OCC3CCCN3C)nc3c2CCN(c2cccc4cccc(C)c24)C3)CC1CC#N
< 10 nM: IC50 (second compound 0.0316 µM) | IC50 (second compound 0.1 µM) | IC50 (second compound 0.316 µM) | IC50 (second compound 1 µM) | IC50 (second compound 3.16 µM)
inactive: viability, T/C (second compound 0.0316 µM, first compound 0.01 µM) 25.4% | viability, T/C (second compound 0.0316 µM, first compound 0.0316 µM) 23.9% | viability, T/C (second compound 0.0316 µM, first compound 0.1 µM) 22.6% | viability, T/C (second compound 0.0316 µM, first compound 0.316 µM) 23.2% | viability, T/C (second compound 0.0316 µM, first compound 1 µM) 22.9% | viability, T/C (second compound 0.0316 µM, first compound 3.16 µM) 23.6% | viability, T/C [1] 21.5% | viability, T/C [2] 22.9% | viability, T/C [3] 18.7% | viability, T/C [4] 20.7% | viability, T/C [5] 20.7% | viability, T/C [6] 21.2% | viability, T/C [7] 20.1% | viability, T/C [8] 21.1% | viability, T/C [9] 19.7% | viability, T/C [10] 17.9% | viability, T/C [11] 30.9% | viability, T/C [12] 21.3% | viability, T/C [13] 19.4% | viability, T/C [14] 17.4% | viability, T/C [15] 18.2% | viability, T/C [16] 16% | viability, T/C [17] 17.1% | viability, T/C [18] 17.2% | viability, T/C [19] 31.7% | viability, T/C [20] 31.1% | viability, T/C [21] 26.5% | viability, T/C [22] 24.8% | viability, T/C [23] 27.7% | viability, T/C [24] 31.2%
